Reference: patent publication US20080176810A1, “Use of 3, 4', 5-Trihydroxy-Stilbene-3-Beta-D-glucoside in Prepartion of Medicines For Treating and/or Preventing Ischemic Heart Disease” (SHENZHEN NEPTUNUS PHARMACEUTICAL CO., LTD., priority 2004, published 2008)

Tested on: anesthetized dogs
Assay: Hemodynamics in anesthetized dogs, iv
Format: in vivo
Protocol: Solvent control group, Isosorbide Dinitrate control group (0.4 mg/kg/h) and administration groups of 3,4′,5-trihydroxy-stilbene-3-[…]-D-glucoside at low (2.5 mg/kg), middle (5 mg/kg) or high (10 mg/kg) doses were set up for the test. Isosorbide Dinitrate control group were medicated by continuous intravenous infusion and other groups by intravenous injection.
After anesthetized with pentobarbital sodium, the dog was immobilized on its back. A femoral artery was separated for insertion of a catheter to record blood pressure of artery. A cardiac catheter was guided inversely from right common carotid artery into its left ventricle. Both catheters were connected to pressure transmitters. After pressure signals were amplified with carriers, they were input into an electrophysiolograph Powerlab system 8s, (ML785/8S AD Instruments, Australia). Needle electrodes were punctured into four limbs to monitor standard 2-lead ECG. A computer (chart4.12, ML785/8S, AD Instruments, Australia) were applied for real-time monitoring and storage of data. After operation, there were 30 minutes for stableness and then basic indexes were recorded before administration. Negative control group were given by […] injection of solvent at 2 ml/kg, while positive control group were intravenously infused at 0.4 mg/kg/h. […]
Indexes of observation included heart rate (HR), systolic blood pressure (BPs), diastolic blood pressure, mean blood pressure, left ventricular systolic pressure (LVSP), left ventricular diastolic pressure (LVDP), the maximum change rate of left ventricular systolic pressure rise and fall (±dp/dtmax), left ventricular end diastolic pressure and ECG.
Significance of differences was checked.

[1] = TSG 5 mg/kg iv, Time c1-c5: 0,15,30,60,120 min, 0 min, before dosing
[2] = TSG 5 mg/kg iv, Time c1-c5: 0,15,30,60,120 min, 15 min after dosing
[3] = TSG 5 mg/kg iv, Time c1-c5: 0,15,30,60,120 min, 30 min after dosing
[4] = TSG 5 mg/kg iv, Time c1-c5: 0,15,30,60,120 min, 60 min after dosing
[5] = TSG 5 mg/kg iv, Time c1-c5: 0,15,30,60,120 min, 120 min after dosing
[6] = TSG 10 mg/kg iv, Time c1-c5: 0,10,30,60,120 min, 0 min
[7] = TSG 10 mg/kg iv, Time c1-c5: 0,10,30,60,120 min, 10 min after dosing
[8] = TSG 10 mg/kg iv, Time c1-c5: 0,10,30,60,120 min, 30 min after dosing
[9] = TSG 10 mg/kg iv, Time c1-c5: 0,10,30,60,120 min, 60 min after dosing
[10] = TSG 10 mg/kg iv, Time c1-c5: 0,10,30,60,120 min, 120 min after dosing

3,4′,5-trihydroxy-stilbene-3-β-D-glucoside [TSG]
BPd [1]: 18.9 ± 4.2 KPa | BPm [1]: 21.1 ± 4.7 KPa | BPs [1]: 25.4 ± 6.4 KPa | HR [1]: 177.2 ± 35.5 p/min | LVEDP [1]: 1.05 ± 1.34 KPa | LVSP [1]: 24.1 ± 4.4 KPa | −dp/dt max [1]: 866.2 ± 350.7 Kpa/s | +dp/dt max [2]: 793.8 ± 299.0 Kpa/s | BPd [2]: 18.7 ± 4.4 KPa | BPs [2]: 25.4 ± 5.8 KPa | HR [2]: 171.0 ± 35.6 p/min | LVEDP [2]: 1.08 ± 1.62 KPa | LVSP [2]: 24.3 ± 4.6 KPa | −dp/dt max [2]: 812.2 ± 308.9 Kpa/s | +dp/dt max [3]: 855.5 ± 296.5 Kpa/s | BPd [3]: 19.2 ± 4.0 KPa | BPm [3]: 21.7 ± 4.2 KPa | BPs [3]: 26.1 ± 5.3 KPa | HR [3]: 170.0 ± 35.5 p/min | LVEDP [3]: 1.19 ± 1.76 KPa | LVSP [3]: 24.6 ± 4.6 KPa | −dp/dt max [3]: 912.3 ± 318.8 Kpa/s | +dp/dt max [4]: 936.1 ± 199.9 Kpa/s | BPd [4]: 19.8 ± 3.3 KPa | BPm [4]: 22.1 ± 3.3 KPa | BPs [4]: 26.6 ± 4.1 KPa | HR [4]: 178.0 ± 29.5 p/min | LVEDP [4]: 0.99 ± 1.19 KPa | LVSP [4]: 25.6 ± 3.0 KPa | −dp/dt max [4]: 891.5 ± 261.8 Kpa/s | +dp/dt max [5]: 921.4 ± 327.1 Kpa/s | BPd [5]: 18.8 ± 4.4 KPa | BPm [5]: 21.0 ± 4.4 KPa | BPs [5]: 25.0 ± 5.0 KPa | HR [5]: 170.2 ± 37.1 p/min | LVEDP [5]: 0.98 ± 1.42 KPa | LVSP [5]: 25.1 ± 5.2 KPa | −dp/dt max [5]: 872.0 ± 291.7 Kpa/s | +dp/dt max [6]: 1455.5 ± 637.7 Kpa/s | BPd [6]: 19.6 ± 3.7 KPa | BPm [6]: 22.5 ± 4.8 KPa | BPs [6]: 28.5 ± 7.5 KPa | HR [6]: 212.5 ± 31.3 p/min | LVSP [6]: 30.1 ± 5.9 KPa | −dp/dt max [6]: 1164.1 ± 488.8 Kpa/s | +dp/dt max [7]: 1646.2 ± 807.8 Kpa/s | BPd [7]: 21.0 ± 5.1 KPa | BPm [7]: 24.5 ± 5.9 KPa | BPs [7]: 32.4 ± 8.2 KPa | HR [7]: 209.7 ± 33.4 p/min | LVSP [7]: 32.4 ± 6.3 KPa | −dp/dt max [7]: 1200.6 ± 447.6 Kpa/s | +dp/dt max [8]: 1623.9 ± 729.5 Kpa/s | BPd [8]: 21.4 ± 5.5 KPa | BPm [8]: 25.1 ± 5.9 KPa | BPs [8]: 33.2 ± 8.5 KPa | HR [8]: 210.2 ± 33.8 p/min | LVSP [8]: 32.4 ± 6.8 KPa | −dp/dt max [8]: 1120.4 ± 357.8 Kpa/s | +dp/dt max [9]: 1518.5 ± 708.1 Kpa/s | BPd [9]: 20.6 ± 4.8 KPa | BPm [9]: 24.4 ± 5.1 KPa | BPs [9]: 33.6 ± 5.5 KPa | HR [9]: 207.1 ± 38.1 p/min | LVSP [9]: 31.7 ± 5.5 KPa | −dp/dt max [9]: 1189.6 ± 461.6 Kpa/s | +dp/dt max [10]: 1266.6 ± 334.8 Kpa/s | BPd [10]: 20.2 ± 3.0 KPa | BPm [10]: 22.7 ± 3.0 KPa | BPs [10]: 29.0 ± 4.8 KPa | HR [10]: 205.6 ± 50.2 p/min | LVSP [10]: 29.5 ± 2.7 KPa | −dp/dt max [10]: 1068.5 ± 208.6 Kpa/s
